Reference: PubChem BioAssay (NCI)
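Five concentrations, 48 hours, 96-well plates. GI50 marks 50% less growth. TGI is the concentration that stops growth completely.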

How the values were obtained:
Assay in all cases: NCI-60 cell line screen, 48 h; in the data active means GI50 below about 0.43 µM; inactive means the rest
MCF7 breast = system: MCF7 breast
DU-145 prostate = system: DU-145 prostate
LOX IMVI melanoma = system: LOX IMVI melanoma
OVCAR-4 ovarian = system: OVCAR-4 ovarian
MALME-3M melanoma = system: MALME-3M melanoma
M14 melanoma = system: M14 melanoma
PC-3 prostate = system: PC-3 prostate
NCI/ADR-RES ovarian = system: NCI/ADR-RES ovarian
SK-OV-3 ovarian = system: SK-OV-3 ovarian
A498 renal = system: A498 renal
NCI-H460 lung = system: NCI-H460 lung
MOLT-4 leukemia = system: MOLT-4 leukemia
UACC-257 melanoma = system: UACC-257 melanoma
OVCAR-5 ovarian = system: OVCAR-5 ovarian
RXF 393 renal = system: RXF 393 renal
HS 578T breast = system: HS 578T breast
UO-31 renal = system: UO-31 renal
CCRF-CEM leukemia = system: CCRF-CEM leukemia
COLO 205 colon = system: COLO 205 colon
HCT-116 colon = system: HCT-116 colon
IGROV1 ovarian = system: IGROV1 ovarian
RPMI-8226 leukemia = system: RPMI-8226 leukemia
HOP-92 NSCLC = system: HOP-92 NSCLC
NCI-H226 lung = system: NCI-H226 lung
EKVX NSCLC = system: EKVX NSCLC
U251 CNS = system: U251 CNS
SF-295 CNS = system: SF-295 CNS
SW-620 colon = system: SW-620 colon
NCI-H522 lung = system: NCI-H522 lung
MDA-MB-435 = system: MDA-MB-435
OVCAR-8 ovarian = system: OVCAR-8 ovarian
TK-10 renal = system: TK-10 renal
786-0 renal = system: 786-0 renal
HL-60(TB) leukemia = system: HL-60(TB) leukemia
HCT-15 colon = system: HCT-15 colon
OVCAR-3 ovarian = system: OVCAR-3 ovarian
SK-MEL-2 melanoma = system: SK-MEL-2 melanoma
K-562 leukemia = system: K-562 leukemia
HOP-62 NSCLC = system: HOP-62 NSCLC
T-47D breast = system: T-47D breast
KM12 colon = system: KM12 colon
SK-MEL-28 melanoma = system: SK-MEL-28 melanoma
ACHN renal = system: ACHN renal
SN12C renal = system: SN12C renal
UACC-62 melanoma = system: UACC-62 melanoma
SK-MEL-5 melanoma = system: SK-MEL-5 melanoma
SF-268 CNS = system: SF-268 CNS
BT-549 breast = system: BT-549 breast
MDA-MB-231 breast = system: MDA-MB-231 breast
SNB-19 CNS = system: SNB-19 CNS
HT29 colon = system: HT29 colon
HCC-2998 colon = system: HCC-2998 colon
SF-539 CNS = system: SF-539 CNS
CAKI-1 renal = system: CAKI-1 renal
NCI-H23 lung = system: NCI-H23 lung
A549 NSCLC = system: A549 NSCLC
SNB-75 CNS = system: SNB-75 CNS

COc1ccc(Sc2[nH]c(C=O)c3ccccc23)cc1
13.7 µM: TGI (KM12 colon)
34.2 µM: TGI (MDA-MB-231 breast)
37.6 µM: TGI (IGROV1 ovarian)
33.3 µM: TGI (RXF 393 renal)
11.2 µM: TGI (NCI-H460 lung)
23.5 µM: TGI (A498 renal)
34.1 µM: TGI (EKVX NSCLC)
24.9 µM: TGI (SK-OV-3 ovarian)
33.6 µM: TGI (HS 578T breast)
inactive: GI50 (MCF7 breast) 12.8 µM | GI50 (DU-145 prostate) 6.25 µM | GI50 (LOX IMVI melanoma) 12.3 µM | GI50 (OVCAR-4 ovarian) 22.4 µM | GI50 (MALME-3M melanoma) 14.2 µM | GI50 (M14 melanoma) 12.4 µM | GI50 (PC-3 prostate) 13.3 µM | GI50 (NCI/ADR-RES ovarian) 11.6 µM | GI50 (SK-OV-3 ovarian) 4.99 µM | GI50 (A498 renal) 3.44 µM | GI50 (NCI-H460 lung) 2.94 µM | GI50 (MOLT-4 leukemia) 1.31 µM | GI50 (UACC-257 melanoma) 20.1 µM | GI50 (OVCAR-5 ovarian) 6.1 µM | GI50 (RXF 393 renal) 10.7 µM | GI50 (HS 578T breast) 6.44 µM | GI50 (UO-31 renal) 5.11 µM | GI50 (CCRF-CEM leukemia) 5.66 µM | GI50 (COLO 205 colon) 0.664 µM | GI50 (HCT-116 colon) 12.7 µM | GI50 (IGROV1 ovarian) 13.8 µM | GI50 (RPMI-8226 leukemia) 7.13 µM | GI50 (HOP-92 NSCLC) 5.52 µM | GI50 (NCI-H226 lung) 2.62 µM | GI50 (EKVX NSCLC) 5.49 µM | GI50 (U251 CNS) 12.3 µM | GI50 (SF-295 CNS) 9.16 µM | GI50 (SW-620 colon) 3.72 µM | GI50 (NCI-H522 lung) 14.3 µM | GI50 (MDA-MB-435) 2.68 µM | GI50 (OVCAR-8 ovarian) 14.1 µM | GI50 (TK-10 renal) 10.6 µM | GI50 (786-0 renal) 12 µM | GI50 (HL-60(TB) leukemia) 5.09 µM | GI50 (HCT-15 colon) 11.6 µM | GI50 (OVCAR-3 ovarian) 11.9 µM | GI50 (SK-MEL-2 melanoma) 13.6 µM | GI50 (K-562 leukemia) 2.14 µM | GI50 (HOP-62 NSCLC) 15.5 µM | GI50 (T-47D breast) 9.08 µM | GI50 (KM12 colon) 3.62 µM | GI50 (SK-MEL-28 melanoma) 15.1 µM | GI50 (ACHN renal) 14.9 µM | GI50 (SN12C renal) 14.9 µM | GI50 (UACC-62 melanoma) 11 µM | GI50 (SK-MEL-5 melanoma) 12.9 µM | GI50 (SF-268 CNS) 14.9 µM | GI50 (BT-549 breast) 2.03 µM | GI50 (MDA-MB-231 breast) 13.4 µM | GI50 (SNB-19 CNS) 4.78 µM | GI50 (HT29 colon) 4.02 µM | GI50 (HCC-2998 colon) 5.44 µM | GI50 (SF-539 CNS) 10.9 µM | GI50 (CAKI-1 renal) 16.7 µM | GI50 (NCI-H23 lung) 14.3 µM | GI50 (A549 NSCLC) 13.3 µM | GI50 (SNB-75 CNS) 11.9 µM
26.1 µM: TGI (786-0 renal) | TGI (UACC-62 melanoma)
19 µM: TGI (MOLT-4 leukemia)
22.3 µM: TGI (CCRF-CEM leukemia)
21 µM: TGI (HOP-92 NSCLC)
31.2 µM: TGI (SF-268 CNS)
21.6 µM: TGI (DU-145 prostate)
49.6 µM: TGI (UACC-257 melanoma)
14.1 µM: TGI (HT29 colon)
47.5 µM: TGI (NCI/ADR-RES ovarian)
14.2 µM: TGI (K-562 leukemia)
30.2 µM: TGI (MCF7 breast) | TGI (T-47D breast)
30 µM: TGI (SK-MEL-28 melanoma)
16.4 µM: TGI (SW-620 colon)
22.2 µM: TGI (UO-31 renal)
25.5 µM: TGI (SK-MEL-5 melanoma) | TGI (SNB-75 CNS)
26 µM: TGI (M14 melanoma) | TGI (RPMI-8226 leukemia)
32.4 µM: TGI (SK-MEL-2 melanoma)
84 µM: TGI (CAKI-1 renal)
61.7 µM: TGI (OVCAR-4 ovarian)
33.1 µM: TGI (SN12C renal)
31.8 µM: TGI (NCI-H522 lung)
24.2 µM: TGI (OVCAR-3 ovarian)
28.3 µM: TGI (OVCAR-5 ovarian)
18.2 µM: TGI (HCC-2998 colon)
28.4 µM: TGI (HL-60(TB) leukemia)
26.9 µM: TGI (SF-295 CNS)
25.3 µM: TGI (HCT-116 colon)
25.4 µM: TGI (LOX IMVI melanoma)
18.5 µM: TGI (SNB-19 CNS)
> 100 µM: TGI (A549 NSCLC)
41.4 µM: TGI (PC-3 prostate)
11.5 µM: TGI (MDA-MB-435)
24.4 µM: TGI (HCT-15 colon)
29.7 µM: TGI (HOP-62 NSCLC)
6 µM: TGI (COLO 205 colon)
16.8 µM: TGI (NCI-H226 lung)
32.3 µM: TGI (NCI-H23 lung)
38.8 µM: TGI (MALME-3M melanoma)
28.8 µM: TGI (ACHN renal)
23 µM: TGI (SF-539 CNS)
24.8 µM: TGI (U251 CNS)
45.1 µM: TGI (TK-10 renal)
32 µM: TGI (OVCAR-8 ovarian)
12.1 µM: TGI (BT-549 breast)

COc1ccc(C)c2sc(N(Cc3cccnc3)C(=O)c3ccc(C#N)cc3)nc12
> 100 µM: TGI (DU-145 prostate) | TGI (LOX IMVI melanoma) | TGI (MALME-3M melanoma) | TGI (M14 melanoma) | TGI (PC-3 prostate) | TGI (NCI/ADR-RES ovarian) | TGI (SK-OV-3 ovarian) | TGI (NCI-H460 lung) | TGI (MOLT-4 leukemia) | TGI (UACC-257 melanoma) | TGI (OVCAR-5 ovarian) | TGI (HS 578T breast) | TGI (UO-31 renal) | TGI (CCRF-CEM leukemia) | TGI (HCT-116 colon) | TGI (IGROV1 ovarian) | TGI (RPMI-8226 leukemia) | TGI (HOP-92 NSCLC) | TGI (NCI-H226 lung) | TGI (U251 CNS) | TGI (SF-295 CNS) | TGI (SW-620 colon) | TGI (NCI-H522 lung) | TGI (MDA-MB-435) | TGI (OVCAR-8 ovarian) | TGI (TK-10 renal) | TGI (786-0 renal) | TGI (HL-60(TB) leukemia) | TGI (HCT-15 colon) | TGI (OVCAR-3 ovarian) | TGI (K-562 leukemia) | TGI (HOP-62 NSCLC) | TGI (T-47D breast) | TGI (KM12 colon) | TGI (ACHN renal) | TGI (SN12C renal) | TGI (UACC-62 melanoma) | TGI (SF-268 CNS) | TGI (BT-549 breast) | TGI (MDA-MB-231 breast) | TGI (SNB-19 CNS) | TGI (HT29 colon) | TGI (HCC-2998 colon) | TGI (SF-539 CNS) | TGI (CAKI-1 renal) | TGI (NCI-H23 lung) | TGI (A549 NSCLC)
99.8 µM: TGI (RXF 393 renal)
inactive: GI50 (DU-145 prostate) 51.9 µM | GI50 (LOX IMVI melanoma) 40.8 µM | GI50 (MALME-3M melanoma) 52.1 µM | GI50 (M14 melanoma) 44.9 µM | GI50 (PC-3 prostate) 30.2 µM | GI50 (NCI/ADR-RES ovarian) 37.7 µM | GI50 (SK-OV-3 ovarian) > 100 µM | GI50 (A498 renal) 2.21 µM | GI50 (NCI-H460 lung) 40 µM | GI50 (MOLT-4 leukemia) 33.5 µM | GI50 (UACC-257 melanoma) 56 µM | GI50 (OVCAR-5 ovarian) 47.5 µM | GI50 (RXF 393 renal) 26.1 µM | GI50 (HS 578T breast) 50.2 µM | GI50 (UO-31 renal) 23.4 µM | GI50 (CCRF-CEM leukemia) 36.6 µM | GI50 (COLO 205 colon) 24.7 µM | GI50 (HCT-116 colon) 29.2 µM | GI50 (IGROV1 ovarian) 52 µM | GI50 (RPMI-8226 leukemia) 26.1 µM | GI50 (HOP-92 NSCLC) 20.3 µM | GI50 (NCI-H226 lung) 54.4 µM | GI50 (U251 CNS) 42.3 µM | GI50 (SF-295 CNS) 51.8 µM | GI50 (SW-620 colon) 54.2 µM | GI50 (NCI-H522 lung) 29.7 µM | GI50 (MDA-MB-435) 35.9 µM | GI50 (OVCAR-8 ovarian) 48.1 µM | GI50 (TK-10 renal) 58.4 µM | GI50 (786-0 renal) 56.8 µM | GI50 (HL-60(TB) leukemia) 31.1 µM | GI50 (HCT-15 colon) 30.5 µM | GI50 (OVCAR-3 ovarian) 40.1 µM | GI50 (K-562 leukemia) 37.9 µM | GI50 (HOP-62 NSCLC) > 100 µM | GI50 (T-47D breast) 26.1 µM | GI50 (KM12 colon) 34.6 µM | GI50 (ACHN renal) 34.7 µM | GI50 (SN12C renal) 44.2 µM | GI50 (UACC-62 melanoma) 31.1 µM | GI50 (SK-MEL-5 melanoma) 24.4 µM | GI50 (SF-268 CNS) 58.7 µM | GI50 (BT-549 breast) 35 µM | GI50 (MDA-MB-231 breast) 38.2 µM | GI50 (SNB-19 CNS) 94.7 µM | GI50 (HT29 colon) 28.5 µM | GI50 (HCC-2998 colon) 46.6 µM | GI50 (SF-539 CNS) 55.6 µM | GI50 (CAKI-1 renal) 47.2 µM | GI50 (NCI-H23 lung) 43.5 µM | GI50 (A549 NSCLC) 43.6 µM
70 µM: TGI (COLO 205 colon)
93.8 µM: TGI (SK-MEL-5 melanoma)
95.5 µM: TGI (A498 renal)
